These results are taken from paper PMC5770468, “Cardiac glycoside/aglycones inhibit HIV-1 gene expression by a mechanism requiring MEK1/2-ERK1/2 signaling” (Scientific Reports, 2018).

Broadly, the IC50 is the concentration needed to halve the response being measured.

One assay concerns HIV-1 Gag-GFP expression. Put plainly: Recovery of HIV-1 Gag-GFP expression by pathway inhibitors in the presence of CSs, HeLa rtTA-HIV(Gag-GFP) cells. The note with it: 12 μM U0126; 5.5 μM Selumetinib; 10 μM LY294002; 5 µM KB-R7943; CSs at ~IC80. In kind it is cell-based. On the procedure:
Figure 5 Effect of modulating NKA expression, [Ca^2+]i, and PI3K-AKT on HIV-1 gene expression. Depletion of the NKA perturbs HIV-1 RNA processing (n ≥ 3, mean, s.e.m.). HeLa rtTA-HIV(Gag-GFP) cells were transduced with two shRNAs (E6/E10) to knockdown expression of the NKA α1 subunit and their effect on HIV-1 gene expression analyzed. After positive selection of cells with puromycin for 24–48 h, HIV-1 expression was Dox induced for 20 h, and cells harvested for analyses. Total mRNA (and protein) was isolated from cells, reverse transcribed, and analyzed by qRT-PCR and data normalized to β-actin (a,c). Results are shown relative to Stuffer (+). (a) Expression levels of NKA α1 mRNAs assayed by qRT-PCR. (b) HIV-1 Gag expression assayed by p24^CA ELISA of cell lysates (40 μg). (c) Accumulation of HIV-1 US (black), SS (white), and MS (gray) mRNAs quantified by qRT-PCR. (d–g) CSs suppress HIV-1 gene expression independent of intracellular Ca^2+ flux/signaling and PI3K-AKT activation. HeLa rtTA-HIV(Gag-GFP) cells were pre-treated with either a chelator of [Ca^2+]i (5 µM BAPTA-AM, [Ca2+]ii), inhibitors of NCX Ca^2+-entry (5 µM KB-R7943, NCXi) or PI3K (10 μM LY294002, PI3Ki), or untreated (DMSO, no pathway inhibitor) for ~2 h prior to treatment with ~IC80s of CSs or DMSO for 4 h, and Dox induced for ~20 h. The pathway used by a CS to inhibit HIV-1 expression was determined by monitoring for recovery of Gag-GFP expression by measuring GFP fluorescence in cell lysates (and initially by plate scans of live/fixed cells, Supplementary Fig. S7a and S8c). (d) Levels of [Ca^2+]i measured by Fura Red AM™ (n ≥ 4, mean, s.e.m.). (e–f) Quantification of Gag-GFP expression by reducing SDS-PAGE in lysates (35 μg) of cells which were pre-treated with/without KB-R7943 (n ≥ 3–4 mean, s.e.m.). […] (g) Graph quantitating Gag expression by p24^CA ELISA in lysates of cells (35 μg) that were pre-treated with/without LY294002 (n ≥ 3, mean, s.e.m.). Statistical comparisons in (a–g) were performed as illustrated (black/gray dashed lines) or described in Methods.
Figure 6 CSs control HIV-1 gene expression through intracellular signaling. HeLa rtTA-HIV(Gag-GFP) cells were pre-treated with/without pathway inhibitor overnight (~15 h) and treated with ~IC80s of CSs. […] Graphs quantifying the activation level (phospho/total protein) of each MAP/MAPK by western blot. […] The signaling pathway(s) used by a CS to inhibit HIV-1 expression was determined by detecting Gag-GFP fluorescence in cell lysates (~35 μg) by reducing SDS-PAGE after pre-treatment of cells with a MEK1/2 (12 μM U0126, white), p38α/β/β2 (15 μM SB203580/p38i, gray), or JNK1/2/3 (1.25 μM SP600125/JNKi, hatched) inhibitor (n ≥ 5–7, 4–8, and 3–7, resp., mean, s.e.m.). […]

The next assay deals with HeLa rtTA-HIV-ΔMls cells. Put plainly: In vitro therapeutic index (CC20/IC50) in HeLa rtTA-HIV-ΔMls cells. Format: cell-based, human. An excerpt: Without median toxic dose (TD50) and half-maximal effective concentration (EC50) data available to calculate TIs (in vivo) from HIV patients treated with CSs, we determined the following TIs for each cell type treated with a CS (summarized in Supplementary Table S1): in vitro TIs from HeLa rtTA-HIV-ΔMls cells using CC20/IC50 (instead of CC50/IC50), in vitro TIs from 24ST1NLESG cells using CC50/IC50, and ex vivo TIs from HIV-infected PBMCs using CC50/IC50 (at day 14 of culture approximated from available cell viability trends for CC50s of Supplementary Fig. S13 and inferred near maximal IC50s).
Supplementary Table S1. Comparison of the in vitro (IVTI) and ex vivo therapeutic indices (EVTIs) of CSs and their impact on the expression of essential HIV-1 proteins.
Notes: data for CC20, CC50, and IC50s for each drug/compound were estimated from dose response curves in Figures 1-2, Supplementary Table S1, Supplementary Figures S2, S5, and S13, and Wong et al.
">" means the estimate has not been accurately determined but is greater than the highest concentration […]
"( )" indicates preliminary data that was not shown. aCC20 instead of CC50 was estimated from dose response curves and used for calculation of IVTIs. bCells were treated at ~IC90of a CS.
(1 picture or pasted object on this page, not shown here)

Assay [1] relates to HIV-1 (Gag) gene expression. Kind of assay: HIV-1 (Gag) gene expression in HeLa rtTA-HIV-ΔMls cells, p24CA ELISA dose response. Format: cell-based, HIV-1 (LAI). The note with it: for IC50: read-out: IC50 (nM) HeLa rtTA-HIV-ΔMls. On the procedure:
Drug/compounds were tested for effects on HIV-1 gene expression using inducible Tet-ON HIV-1 cell lines [HeLa rtTA-HIV-ΔMls or rtTA-HIV(Gag-GFP)] containing a HIV-1 (LAI) provirus activatable by Dox or tetracycline transactivator (tTA)[69]. The rtTA-HIV-ΔMls provirus was modified and used as previously reported[9]–[11],[70]. The rtTA-HIV(Gag-GFP) provirus was generated by deletion of the PR and RT coding regions within pol and insertion of GFP to the 3′ of gag, creating GFP fused to the C-terminal of Gag. After 4 h of drug/compound treatment, HIV-1 gene expression was activated with Dox (2 μg/mL) or tTA (described below). Equal concentrations of DMSO were present in each experiment. After ~20 h, cells and media were harvested to monitor the effects of drug/compound treatments as described below. HIV-1 gene expression was quantified via p24^CA ELISA or monitoring Gag-GFP fluorescence in cells as described below. In parallel, cell viability of treatments were assessed by XTT assay (Sigma-Aldrich, #TOX2).
Drug/compounds were purchased from Sigma (Digoxin, #D6003; Digitoxin, #D5878; Digoxigenin, #D9026; Digitoxigenin, #D9404; Ouabain, #O3125; Bufalin, #S961175; Cinobufagin, #C1272; and Anisomycin, #A9789) and derivatives of convallatoxin were synthesized from C. Lingwood’s lab of the Hospital for Sick Children (convallatoxin, peruvoside, RIDK-34, -36, -20, -21, -27, and -28). […] Recombinant human EGF was from Invitrogen (#PHG0314). Chemical structures were drawn in ChemSketch (ACD/Labs).
To monitor HIV-1 gene expression or replication, Gag release into cell culture supernatants were assayed by ELISA using a p24^CA antigen capture assay kit (AIDS & Cancer Virus Program, NCI-Frederick, Frederick, MD USA). Media harvested from HIV clinical isolates were diluted ~10 fold (or as necessary) prior to performing this assay. For analysis of HIV-1 and SR protein expression (and phosphorylation states with calf intestinal alkaline phosphatase treatments), cells were lysed and analyzed by western blot as previously outlined. Phosphatase inhibitors (e.g. 10 mM sodium fluoride, 2 mM sodium orthovanadate) were added to solutions requiring phospho protein analyses. An anti-chicken NKA antibody (α6F, #a6F–c, Developmental Studies Hybridoma Bank, The University of Iowa, contributed by Douglas M. Fambrough, The Johns Hopkins University) was used as specified to detect NKA α1- and β1-subunits across species. […] Activation of MAPKs was determined by western blot quantitation and calculation of phospho/total protein levels. […] Images were exported as TIF files for assembly, rotation, and equal brightness/contrast adjustments in ImageJ or Microsoft Powerpoint. Some lanes were cropped and rearranged from the same blot/gel as indicated. In representative gel/blot sets, samples were electrophoresed from the same experiment as controls, resolved simultaneously on identically cast gel(s), transferred to same PVDF (by either wet electrophoretic or by Bio-Rad Trans-Blot® Turbo Transfer System), and detected at same time. Marked locations of molecular weight (MW) standards are shown on the left as a reference. […] SUnSET analysis of total cellular protein synthesis. HeLa rtTA-HIV-ΔMls cells were cultured in the presence/absence of compound and pathway inhibitor (if any) and Dox induced for ~24 h as already described, then treated with puromycin (10 μg/mL, Sigma-Aldrich, #P8833) for 30 min to label nascent proteins prior to harvest. As control, 10 µM of cycloheximide (Sigma-Aldrich, #C4849) was added to some cells prior to puromycin treatment. Cells were subsequently washed, whole cell lysates prepared, and proteins quantified by western blot using an anti-puromycin antibody (EMD Millipore, #anti-12D10) as described above. Transfection of plasmid DNA into cells.

[2] abbreviates: Human immunodeficiency virus 1, HeLa.
The mark [3] stands for this setting: Human immunodeficiency virus 1, HeLa, read-out: IC90, HIV-1 (Gag) gene expression.

Like-named read-outs stand apart in the source and are kept apart here. Some results are limits rather than exact numbers.

As to `N#CC(=C(/N)Sc1ccccc1N)/C(C#N)=C(/N)Sc1ccccc1N` [U0126], in the assay on HIV-1 Gag-GFP expression, the “reversal of CS inhibition of HIV-1 Gag-GFP expression by pathway inhibitor pre-treatment” value (shortened to “reversal … by pathway inhibitor pre-treatment”) is “partially restored”.

On to `Cn1cnc2c(F)c(Nc3ccc(Br)cc3Cl)c(C(=O)NOCCO)cc21` [Selumetinib], for which, in the assay on HIV-1 Gag-GFP expression, the “reversal … by pathway inhibitor pre-treatment” value was “partially rescuing”.

For `CC(=O)O[C@H]1[C@H]2O[C@]23[C@@H]2CC[C@@H]4C[C@@H](O)CC[C@]4(C)[C@H]2CC[C@]3(C)[C@H]1c1ccc(=O)oc1` [Cinobufagin], the “better in vitro TI than digoxin” value in the assay on HeLa rtTA-HIV-ΔMls cells came out at 2.3 fold. Besides, the IC50 in assay [1] (setting [2]) was found to be 24 nM. For the same compound, the IC90 is 40 nM in assay [1] (setting [3]) and approximately 40 nM in assay [1] (Human immunodeficiency virus 1, HeLa, read-out: ~IC90 (approximate concentration used in experiments)). Besides, the IC80 in assay [1] (Human immunodeficiency virus 1, HeLa, read-out: ~IC80 (approximate concentration used in experiments)) was approximately 40 nM. For the same compound, in assay [1] (cell based assays (HeLa rtTA-HIV-ΔMls)), the “better anti-HIV-1 activity than digoxin” value was 1.9 fold.

For the compound `CC1OC(OC2CC(O)C3(CO)C4C(O)CC5(C)C(C(=CC(=O)O)CO)CCC5(O)C4CCC3(O)C2)C(O)C(O)C1O` (stereo not drawn) [RIDK-21], the “anti-HIV-1 activity” value in assay [1] (HeLa rtTA-HIV-ΔMls cells) was “reduced/no anti-HIV-1 activity”. Further, the IC50 in assay [1] (HIV-1 Gag expression, p24CA ELISA, 4 h drug then Dox ~20 h) was more than 100 nM.

Take `C[C@@H]1O[C@@H](O[C@H]2CC[C@]3(C=O)[C@H]4CC[C@]5(C)[C@@H](C6=CC(=O)OC6)CC[C@]5(O)[C@@H]4CC[C@]3(O)C2)[C@H](O)[C@H](O)[C@H]1O` [Convallatoxin]: the “better in vitro TI than digoxin” value in the assay with HeLa rtTA-HIV-ΔMls cells is 6.8 fold. Also, in assay [1], the “better anti-HIV-1 activity than digoxin” value amounted to 3.8 fold. In addition, the IC50 in assay [1] (Human immunodeficiency virus 1, HeLa, HIV-1 Gag expression, p24CA ELISA, 4 h drug then Dox ~20 h) came out at 12 nM. Moreover, the IC90 in assay [1] (Human immunodeficiency virus 1, HeLa rtTA-HIV-ΔMls cells, read-out: IC90, HIV-1 (Gag) gene expression) was found to be 24 nM.

`O=c1cc(N2CCOCC2)oc2c(-c3ccccc3)cccc12` [LY294002]: the “reversal … by pathway inhibitor pre-treatment” value with HIV-1 Gag-GFP expression is on record as “did not reverse”.

On to `CO[C@H]1[C@H](O)[C@H](O[C@H]2CC[C@@]3(C=O)[C@H](CC[C@@H]4[C@@H]3CC[C@]3(C)[C@@H](C5=CC(=O)OC5)CC[C@]43O)C2)O[C@@H](C)[C@@H]1O` [Peruvoside], for which the “reduced potency relative to convallatoxin” value in assay [1] (HeLa rtTA-HIV-ΔMls cells) amounted to 10 fold. The IC50 in assay [1] (setting [2]) was found to be 80 nM. Also, the IC90 in assay [1] (setting [3]) turned out to be 250 nM.
